The source of these data is ChEMBL document CHEMBL4834455, “Sesquiterpenes and Steroids from an Endophytic Eutypella scoparia” (J Nat Prod, 2021).

Activity calls are given as the source filed them. The calls are words filed in the database; no cut-off is given here.

For one data set, the system named is MCF7. The data set is described as follows: Antiproliferative activity against human MCF7 cells assessed as cell growth inhibition measured after 48 hrs by MTT assay. Format: functional, cell-based.
Details: not given
On the technique in general: Tetrazolium assays rely on reduction of a dye to a coloured formazan, in cell work by metabolically active cells.
For `CC(C)[C@@H](C)/C=C/[C@@H](C)[C@H]1CCC2=C3C=CC4=CC(=O)CC[C@]4(C)[C@H]3CC[C@@]21C`, the outcome was inactive.
As for `CC1=CCCC2(C)CC[C@H](C(C)CO)C[C@H]12` (single isomer, unassigned), the outcome was inactive.
On the same count and under the same terms, in the case of `C=C(C(C)C)[C@H](O)C[C@@H](C)[C@H]1CC[C@@]2(C)C3=C(CC[C@]12C)[C@@]1(C)CCC(=O)C(C)(C)[C@@H]1CC3` it was “inactive”; in that of `C[C@H]1CCC(=O)[C@@]2(C)CCC(C(C)(C)O)=C[C@H]12`, “inactive”; in that of `C[C@H]1CCC(=O)[C@@]2(C)CC[C@H](C(C)(C)O)[C@H](O)[C@H]12`, “inactive”.
For `CC1=CC(=O)C[C@@]2(C)CC[C@H](C(C)(C)O)C[C@H]12`, the result was inactive.
`C[C@H]1CCC(=O)[C@@]2(C)CC=C(C(C)(C)O)C[C@H]12`: the outcome was inactive.
Turning to `CC1=CCC[C@H]2CC3=C(CO)C(=O)OC3=C[C@]12C`, the outcome was inactive.
For `CC(C)[C@H](C)/C=C/[C@@H](C(=O)O)[C@H]1CCC2=C3C=C[C@H]4CC(=O)CC[C@]4(C)[C@H]3CC[C@@]21C`, the outcome was inactive.

For the next data set, the system named is HeLa. The data set is described as follows: Antiproliferative activity against human HeLa cells assessed as cell growth inhibition measured after 48 hrs by MTT assay. Format: functional, cell-based.
Details: not given
Turning to `CC(C)[C@@H](C)/C=C/[C@@H](C)[C@H]1CCC2=C3C=CC4=CC(=O)CC[C@]4(C)[C@H]3CC[C@@]21C`, the outcome was inactive.
On to `CC1=CCCC2(C)CC[C@H](C(C)CO)C[C@H]12` (single isomer, unassigned), for which the outcome was inactive.
As to `C=C(C(C)C)[C@H](O)C[C@@H](C)[C@H]1CC[C@@]2(C)C3=C(CC[C@]12C)[C@@]1(C)CCC(=O)C(C)(C)[C@@H]1CC3`, the outcome was inactive.
Still for that read-out and setting: in the case of `C[C@H]1CCC(=O)[C@@]2(C)CCC(C(C)(C)O)=C[C@H]12` it was “inactive”.
As to `C[C@H]1CCC(=O)[C@@]2(C)CC[C@H](C(C)(C)O)[C@H](O)[C@H]12`, the outcome was inactive.
As for `CC1=CC(=O)C[C@@]2(C)CC[C@H](C(C)(C)O)C[C@H]12`, the result was inactive.
For the molecule `C[C@H]1CCC(=O)[C@@]2(C)CC=C(C(C)(C)O)C[C@H]12`, the outcome was inactive.
`CC1=CCC[C@H]2CC3=C(CO)C(=O)OC3=C[C@]12C`: the result was inactive.
On the same count and under the same terms, in the case of `CC(C)[C@H](C)/C=C/[C@@H](C(=O)O)[C@H]1CCC2=C3C=C[C@H]4CC(=O)CC[C@]4(C)[C@H]3CC[C@@]21C` it was “inactive”.

The subject of the next data set is MDA-MB-231. The experiment in a line: Antiproliferative activity against human MDA-MB-231 cells assessed as cell growth inhibition measured after 48 hrs by MTT assay. Format: functional, cell-based.
Details: not given
For the molecule `CC(C)[C@@H](C)/C=C/[C@@H](C)[C@H]1CCC2=C3C=CC4=CC(=O)CC[C@]4(C)[C@H]3CC[C@@]21C`, the outcome was inactive.
For `CC1=CCCC2(C)CC[C@H](C(C)CO)C[C@H]12` (single isomer, unassigned), the result was inactive.
For `C=C(C(C)C)[C@H](O)C[C@@H](C)[C@H]1CC[C@@]2(C)C3=C(CC[C@]12C)[C@@]1(C)CCC(=O)C(C)(C)[C@@H]1CC3`, the outcome was inactive.
Regarding `C[C@H]1CCC(=O)[C@@]2(C)CCC(C(C)(C)O)=C[C@H]12`, the outcome was inactive.
On to `C[C@H]1CCC(=O)[C@@]2(C)CC[C@H](C(C)(C)O)[C@H](O)[C@H]12`, for which the result was inactive.
Consider `CC1=CC(=O)C[C@@]2(C)CC[C@H](C(C)(C)O)C[C@H]12`, for which the outcome was inactive.
Take `C[C@H]1CCC(=O)[C@@]2(C)CC=C(C(C)(C)O)C[C@H]12`: the result was inactive.
Same read-out and setting: in the case of `CC1=CCC[C@H]2CC3=C(CO)C(=O)OC3=C[C@]12C` it was “inactive”; in that of `CC(C)[C@H](C)/C=C/[C@@H](C(=O)O)[C@H]1CCC2=C3C=C[C@H]4CC(=O)CC[C@]4(C)[C@H]3CC[C@@]21C`, “inactive”.

The test system of the next data set is Staphylococcus aureus. The experiment in a line: Antibacterial activity against methicillin-resistant Staphylococcus aureus JCSC3063 assessed as bacterial growth inhibition by microbroth dilution method. Format: functional.
Details: not given
A general note: Dilution methods test growth across graded concentrations, often in twofold steps.
On to `CC(C)[C@@H](C)/C=C/[C@@H](C)[C@H]1CCC2=C3C=CC4=CC(=O)CC[C@]4(C)[C@H]3CC[C@@]21C`, for which the outcome was inactive.
In the case of `C=C(C(C)C)[C@H](O)C[C@@H](C)[C@H]1CC[C@@]2(C)C3=C(CC[C@]12C)[C@@]1(C)CCC(=O)C(C)(C)[C@@H]1CC3`, the result was inactive.
For the molecule `C[C@H]1CCC(=O)[C@@]2(C)CCC(C(C)(C)O)=C[C@H]12`, the outcome was inactive.
As to `C[C@H]1CCC(=O)[C@@]2(C)CC[C@H](C(C)(C)O)[C@H](O)[C@H]12`, the outcome was inactive.
For the molecule `CC1=CC(=O)C[C@@]2(C)CC[C@H](C(C)(C)O)C[C@H]12`, the outcome was inactive.
On the same count and under the same terms, as for `C[C@H]1CCC(=O)[C@@]2(C)CC=C(C(C)(C)O)C[C@H]12`, the entry is “inactive”.
As to `CC1=CCC[C@H]2CC3=C(CO)C(=O)OC3=C[C@]12C`, the result was inactive.
For the molecule `CC(C)[C@H](C)/C=C/[C@@H](C(=O)O)[C@H]1CCC2=C3C=C[C@H]4CC(=O)CC[C@]4(C)[C@H]3CC[C@@]21C`, the result was inactive.

In another data set the test system is Staphylococcus aureus. The data set is described as follows: Antibacterial activity against Staphylococcus aureus CMCC26003 assessed as bacterial growth inhibition by microbroth dilution method. Format: functional.
Details: not given
Take `CC(C)[C@@H](C)/C=C/[C@@H](C)[C@H]1CCC2=C3C=CC4=CC(=O)CC[C@]4(C)[C@H]3CC[C@@]21C`: the result was inactive.
Consider `CC1=CCCC2(C)CC[C@H](C(C)CO)C[C@H]12` (single isomer, unassigned), for which the Activity came out at 6.3 µg/mL.
For `C=C(C(C)C)[C@H](O)C[C@@H](C)[C@H]1CC[C@@]2(C)C3=C(CC[C@]12C)[C@@]1(C)CCC(=O)C(C)(C)[C@@H]1CC3`, the result was inactive.
Turning to `C[C@H]1CCC(=O)[C@@]2(C)CCC(C(C)(C)O)=C[C@H]12`, the result was inactive.
`C[C@H]1CCC(=O)[C@@]2(C)CC[C@H](C(C)(C)O)[C@H](O)[C@H]12`: the result was inactive.
As for `CC1=CC(=O)C[C@@]2(C)CC[C@H](C(C)(C)O)C[C@H]12`, the result was inactive.
With `C[C@H]1CCC(=O)[C@@]2(C)CC=C(C(C)(C)O)C[C@H]12`, the outcome was inactive.
Consider `CC1=CCC[C@H]2CC3=C(CO)C(=O)OC3=C[C@]12C`, for which the outcome was inactive.
Still for that read-out and setting: as for `CC(C)[C@H](C)/C=C/[C@@H](C(=O)O)[C@H]1CCC2=C3C=C[C@H]4CC(=O)CC[C@]4(C)[C@H]3CC[C@@]21C`, the entry is “inactive”.

System in another data set: not listed separately
The data set is described as follows: Cytotoxicity against African green monkey MARC145 cells assessed as cell growth inhibition measured after 48 hrs by MTT assay. Format: cell-based. To be noted: chlorocebus aethiops, marc145, 48 h.
For the molecule `CC(C)[C@@H](C)/C=C/[C@@H](C)[C@H]1CCC2=C3C=CC4=CC(=O)CC[C@]4(C)[C@H]3CC[C@@]21C`, the Activity entry is recorded as “Non-Toxic”.
In the case of `CC1=CCCC2(C)CC[C@H](C(C)CO)C[C@H]12` (single isomer, unassigned), the Activity entry is on record as “Non-Toxic”.
In the case of `C=C(C(C)C)[C@H](O)C[C@@H](C)[C@H]1CC[C@@]2(C)C3=C(CC[C@]12C)[C@@]1(C)CCC(=O)C(C)(C)[C@@H]1CC3`, the Activity entry is recorded as “Non-Toxic”.
Turning to `C[C@H]1CCC(=O)[C@@]2(C)CCC(C(C)(C)O)=C[C@H]12`, the Activity entry is “Non-Toxic”.
As to `C[C@H]1CCC(=O)[C@@]2(C)CC[C@H](C(C)(C)O)[C@H](O)[C@H]12`, the Activity result is given as “Non-Toxic”.
In the case of `CC1=CC(=O)C[C@@]2(C)CC[C@H](C(C)(C)O)C[C@H]12`, the Activity result was “Non-Toxic”.
Same read-out and setting: in the case of `C[C@H]1CCC(=O)[C@@]2(C)CC=C(C(C)(C)O)C[C@H]12` it was “Non-Toxic”; in that of `CC1=CCC[C@H]2CC3=C(CO)C(=O)OC3=C[C@]12C`, “Non-Toxic”.
Consider `CC(C)[C@H](C)/C=C/[C@@H](C(=O)O)[C@H]1CCC2=C3C=C[C@H]4CC(=O)CC[C@]4(C)[C@H]3CC[C@@]21C`, for which the Activity entry is recorded as “Non-Toxic”.
